# Measured values: paper PMC10442743 (Dalton Transactions (Cambridge, England : 2003), 2023)
# Like-named read-outs stand apart in the source and are kept apart here.
# Legend:
# MCF-7 = assay: MTT cytotoxicity assay, MCF-7 cells; assay type: cell-based, human; conditions: MTT
# Description: The cytotoxicity of 1–11CA was assessed against human breast cancer MCF-7 and MDA-MB-231 cells, and non-tumorigenic adherent mouse fibroblast connective tissue L929 cells using the MTT assay after 24 and 72 h (Tables S5 ^† and Table 1, respectively).
# Then, necessary dilutions were made using the supplement DMEM, to prepare the range of tested concentrations. Since DMSO was used to solubilize the compounds, a supplemented DMEM + DMSO (at the same percentage as in the sequential dilutions) was considered as a control in the 3-[4,5-dimetylthiazole-2-yl]-2,5-diphenyltetrazolium bromide (MTT) assay.
# L929, MCF-7, and MDA-MB-231 cell lines were cultured in DMEM supplemented with 10% (v/v) FBS and 1% (v/v) of penicillin–streptomycin. The cells were incubated in a humidified chamber at 37 °C under saturated air with a 5% CO2 atmosphere. Cells were passed at 80%–90% of confluency with 0.25% (w/v) trypsin and the cell culture media was changed every 2–3 days.
# The compounds were tested on two breast cancer cell lines (MCF-7 and MDA-MB-231) and L929 fibroblasts, used as a reference for the safety evaluation according to ISO 10993-1:2009 “Biological evaluation of medical devices”. Cells were seeded on sterile 96-well plates at 50 000 cells per well (L929) and 20 000 cells per well (MCF-7 and MDA-MB-231) in supplemented DMEM medium (100 μL) for 24 h. The culture medium was removed and new media containing different concentrations of the compounds (0–1000 μM) was added to the wells (100 μL). Control cells were incubated under the same conditions in the absence of a compound. Cells were incubated for 24 and 72 h under the same conditions described above. Then, the medium was removed, and the cells were incubated with 3-(4,5-dimethylthiazol-2-yl)-2,5-diphenyltetrazolium bromide (MTT; 0.5 mg mL^−1) for 3 h. After this time, the medium was removed, and formazan crystals were solubilized with DMSO (100 μL per well). The absorbance in each well was read on a SynergyTM HT Multimode microplate reader (BioTek Instruments; Winooski, VT, USA) at 570 and 630 nm (for background correction), and the cell viability was calculated according to the following equation (eqn (1)):1 [drawing 3] where OD570(sample) and OD630(sample) are the optical densities of the solutions containing the compounds and OD570(control) and OD630(control) are controls without compound.
# Each apoptosis value determination represents the mean ± standard deviation of 2 independent assays. The IC50 values were obtained using GraphPad Prism software and ANOVA (analysis of variance) was performed to determine the statistical difference between the IC50 values of different cell lines.
# [1] = n-octanol/water partition coefficient (shake-flask, ICP-MS)
# Description: The saturated solutions were filtered
# (DigiPREP Jr. 15ml, 40 Pos, SCP Science). The digestion program was the following: 15
# After the digestion, the sample
# Samples were further diluted
# range. All measurements were performed in triplicates.
# lipophilicity of a compound. This assay was performed following the Shake-flask method
# organic and aqueous phase. Aliquots of each phase were taken and analyzed separately
# range. The partition coefficient was calculated as P!"=
# respectively. All measurements were performed in triplicates.
# [2] = Solubility in water (ICP-MS); conditions: 25 °C, limit of detection = 5 ppt
# Description: sonication, the mixtures were stirred at 25 °C for 1 h. The saturated solutions were filtered
# to remove any insoluble solids, dissolved in 0.5 mL of MilliQ water, and analyzed using
# ICP-MS. Samples were submitted to acidic digestion with 2 mL of concentrated HNO3
# min to heat to 100°C and keep at 100°C for 60 min. After the digestion, the sample
# volumes were precisely adjusted to 5 mL with MilliQ water. Samples were further diluted
# 30 times with 2% HNO3 solution and their Ru content was analyzed by ICP-MS using
# standard mode on NexIon 350 D ICP-MS instrument (PerkinElmer). Yttrium was added
# as an internal standard at a concentration of 2 ppb to all the solution and Ru quantitation
# was performed using an external calibration curve with standards in the 0.05-50 ppb
# [3] = target: bovine serum albumin (BSA) (Bos taurus, UniProt P02769); assay: BSA binding assay (tryptophan fluorescence quenching)
# Description: BSA (16 μM) in 10 mM Tris-HCl pH 7.6 + 1 mM EDTA solution and varying concentrations of 11Cl (0–32 μM) were incubated at 37 °C for 24 h. Afterward, the fluorescence spectra were measured for each solution between 300 and 500 nm (λex = 280 nm). The intensity at λmax (340 nm) was recorded.
# ct-DNA = assay: Competitive DNA binding assay with fluorescent probes (DAPI, MG, PI)
# Description: From the obtained fluorescence data, apparent DNA binding constants, Kapp, were calculated according to the competitive binding model described by Tse and Boger.[66]
# Emission intensity measurements were performed using a SpectraMax M5e reader at room temperature. A 50 μM (bp) of ct-DNA was pre-incubated with the groove binding agents (MG and DAPI) (2 μM) and the intercalating agent propidium iodide (2 μM) for 30 min at 37 °C, to allow full interaction of the dyes into the ctDNA. Increasing amounts of 11Cl (0–100 μM) were added to this mixture and the final samples were incubated for 24 h at 37 °C. After incubation, the emission spectra were recorded at excitations of 633, 358, and 535 nm for the measurements of MG, DAPI, and PI, respectively. Quenching parameters were obtained by applying the Stern–Volmer equation (eqn (2)). The apparent binding constants, Kapp, were calculated according to the competitive binding model described by Tse and Boger[66] using eqn (4):[90]4 Kprobe[probe] = Kappc50where Kprobe is the binding constant of the probe, 9 × 10^5 and 5 × 10^6 M^−1 for MG[91] and DAPI,[92] respectively; [probe] is the concentration of probe used, 10 μM for both MG and DAPI; and c50 is the complex concentration when the fluorescence intensity of the probe is 50%. This value is obtained from the plot F0/F vs. [Q] when F0/F = 2.
# [4] = complex concentration at 50% probe fluorescence, Table S9
# [5] = ctDNA, DAPI competitive binding, Table S9
# [6] = ctDNA, MG competitive binding, Table S9
# Sequence of bovine serum albumin (BSA) (P02769 25-607): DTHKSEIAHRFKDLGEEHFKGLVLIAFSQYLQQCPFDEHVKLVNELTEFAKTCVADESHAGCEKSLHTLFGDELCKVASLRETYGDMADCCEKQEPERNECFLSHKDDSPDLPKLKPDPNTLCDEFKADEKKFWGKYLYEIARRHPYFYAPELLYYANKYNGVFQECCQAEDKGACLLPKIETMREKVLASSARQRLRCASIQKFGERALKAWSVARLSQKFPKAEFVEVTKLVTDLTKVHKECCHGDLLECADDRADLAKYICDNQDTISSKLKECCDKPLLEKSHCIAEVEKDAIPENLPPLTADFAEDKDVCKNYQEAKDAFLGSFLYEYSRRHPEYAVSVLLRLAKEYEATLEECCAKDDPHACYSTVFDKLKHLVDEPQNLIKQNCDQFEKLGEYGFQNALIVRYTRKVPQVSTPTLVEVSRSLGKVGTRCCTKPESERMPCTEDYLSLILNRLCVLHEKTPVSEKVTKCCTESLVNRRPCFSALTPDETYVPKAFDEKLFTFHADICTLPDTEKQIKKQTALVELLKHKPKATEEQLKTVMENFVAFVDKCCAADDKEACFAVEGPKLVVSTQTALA
structure (smiles),measurement,setting,value
"Cc1ccccc1.[Cl-].[Cl][Ru+]([PH](c1ccccc1)(c1ccccc1)c1ccccc1)[PH](c1ccccc1)(c1ccccc1)c1ccccc1 [Compound 11Cl, [Ru(η^6-toluene)(PPh3)2Cl]Cl]",IC50,"MCF-7; 24 h exposure, read-out: IC50 (µM) (average ± standard deviation) 24 h MCF-7",4 ± 0.3 µM
same,IC50,"MCF-7; 72 h exposure, read-out: IC50 (μM) (average ± standard deviation) 72 h MCF-7",0.061 ± 0.003 µM
same,LogPow,[1],1.48 ± 0.29
same,Solubility (μM),[2],528 ± 88 µM
same,Solubility (μg/mL),[2],416 ± 70 µg/mL
same,bimolecular quenching rate kq (BSA),"[3]; BSA 16 μM, 37 °C, 24 h",1.9e+12 M⁻¹ s⁻¹
same,binding constant to BSA,"[3]; BSA 16 μM, 37 °C, 24 h",560000 M⁻¹
same,KSV (BSA),[3]; Table S8,1.13 ± 0.08 104 M−1
same,kq (BSA),[3]; Table S8,1.88 ± 0.14 1012 M−1
same,"n (number of binding sites, BSA)",[3]; Table S8,1.4
same,n (number of binding sites in BSA),[3]; estimated value,~1
same,"C50, DAPI probe",ct-DNA; [4],1.1 10−4 M
same,"C50, MG probe",ct-DNA; [4],2.1 10−4 M
same,"KSV, DAPI probe",ct-DNA; [5],8.8 ± 0.6 103 M−1
same,"Kapp, DAPI probe",ct-DNA; [5],4.4 ± 0.3 105 M−1
same,"kq, DAPI probe",ct-DNA; [5],3.3 ± 0.3 1012 M−1
same,"KSV, MG probe",ct-DNA; [6],4.8 ± 0.7 103 M−1
same,"Kapp, MG probe",ct-DNA; [6],0.43 ± 0.04 105 M−1
same,"kq, MG probe",ct-DNA; [6],0.48 ± 0.07 1012 M−1
same,quenching of PI (intercalator probe) fluorescence,"ct-DNA; ctDNA, probe PI",no linear quenching was observed
same,preference towards the minor groove,ct-DNA; from difference of Kapp values,10 fold
